pIC50: −log10 of the molar value.
What was measured:
BRD4-BD2 = conditions: cited from earlier work
acute leukemia tumors = conditions: mice, administered orally, 60 mg/kg per day; cited from earlier work
[1] = biological target: T1, bromodomain protein BRD4 BD2 (Homo sapiens, UniProt O60885); experiment: HTRF in vitro assay, inhibitory activity against BRD4 BD2; assay type: binding; conditions: BRD4(2) 30 nM in final system
T1 construct: The proteins BRD4 BD1/BD2 used in the experiment were purchased from Active Motif Company (Cat. No. 31380/31446); purchased Active Motif 31446
Protocol: (§1) The inhibitory activity of the compound against BRD4 BD1 was determined by using Homogeneous Time-Resolved Fluorescence (HTRF).
(§2) The proteins BRD4 BD1/BD2 used in the experiment were purchased from Active Motif Company (Cat. No. 31380/31446); Streptavidin XL-665 (#610SAXLA) and EPIgeneous Binding Domain Kit A (#62BDAPEG) were purchased from Cisbio Bioassays Company, [Lys(5,8,12,16)Ac]H4(1-21)-biotin (#64989), and [Lys(5,8,12,16)Ac]H4(1-25) were products of AnaSpec company; OTX015 and ABBV-075 were purchased from SelleckChem. 384 Well ProxiPlate (#6008280) was purchased from PerkinElmer. The multifunctional microplate reader used for the experimental was a product of PerkinElmer, model: Envision 2104. The experimental water was Millipore-Q pure water.
(§3) 10 mM of stock solution of compound in DMSO was diluted to 1 mM with DMSO and stored, and then diluted 10 times with Binding Domain dilution buffer (purchased from Cisbio Bioassays) for use (the concentration of DMSO in the final system was […]), 1:5 gradient dilution, a total of 5 concentrations.
(§4) 4. Test Method: 1 Batch, 2 Duplicate Wells
(§5) • 1) 5 μL of test compound was transferred to 45 μL of Binding Domain dilution buffer. • 2) 2 μL of 10× compound (4 μL Binding Domain dilution buffer: positive control; 6 μL enzyme buffer (purchased from Cisbio Bioassays): negative control) was transferred to the reaction plate. • 3) 4 μL of 5×BRD4(1) or BRD4(2) (30 nM in final system) was added to the reaction plate. • 4) 4 μL of 5×[Lys(5,8,12,16)Ac]H4(1-21)-biotin was added to the reaction plate, and the plate was covered with a film, and incubated at 37° C. for 30 min. • 5) A detection mixture of SA-XL665 (2×) and anti-H3K9me0-Eu(K) (2×) was prepared in detection buffer (purchased from Cisbio Bioassays). • 6) 10 μL of detection mixture (2×) was added to each well, and incubated for 3 h at room temperature, and the mp value was read using a multi-plate reader Envision. The parameters were set as follows.

[2] = biological target: T2, bromodomain protein BRD4 BD1 (Homo sapiens, UniProt O60885); experiment: HTRF in vitro assay, inhibitory activity against BRD4 BD1; assay type: binding; conditions: BRD4(1) 30 nM in final system
T2 construct: The proteins BRD4 BD1/BD2 used in the experiment were purchased from Active Motif Company (Cat. No. 31380/31446); purchased Active Motif 31380
Protocol: In this example, the half inhibitory activity (IC50) of the compounds of the present invention against the bromodomain protein BRD4 BD1 was determined.
as §1, §2, §3, §4, §5

SMILES	selectivity (BD2/BD1) (BRD4-BD2)	inhibits acute leukemia tumors (acute leukemia tumors)	pIC50 [1]	pIC50 [2]
CCNC(=O)c1cc2c(-c3cc(C(C)(C)O)ccc3Oc3c(C)cc(F)cc3C)cn(C)c(=O)c2[nH]1 [Abbv744]	> 100 times			
Cc1noc2c1-c1ccccc1C(c1ccc(Cl)cc1)=N[C@H]2CC(N)=O [CPI-0610]		41%		
CCNC(=O)c1cc2c(-c3c(C4CC4)nn(C)c3C3CC3)cn(C)c(=O)c2[nH]1 [Compound A34, 4-(3,5-dicyclopropyl-1-methyl-1H-pyrazol-4-yl)-N-ethyl-6-methyl-7-oxo-6,7-dihydro-1H-pyrrolo[2,3-c]pyridin-2-carboxamide]			7.00 to 8.00	6.00 to 7.00
CC(c1ccccc1)c1cn(C)c(=O)c2[nH]c(-c3cnoc3)cc12 (stereo not shown) [Compound A20, 2-(isoxazol-4-yl)-6-methyl-4-(1-phenethyl)-1H-pyrrolo[2,3-c]pyridin-7(6H)-one]			7.00 to 8.00	6.00 to 7.00
Cn1cc(-c2cc3c(C(O)c4ccccc4)cn(C)c(=O)c3[nH]2)cn1 (stereo not shown) [Compound A44]			7.00 to 8.00	6.00 to 7.00
Cn1cc(C(CO)c2ccccc2)c2cc(-c3cnn(C4COC4)c3)[nH]c2c1=O (stereo not shown) [Compound A67, 4-(2-hydroxy-1-phenethyl)-6-methyl-2-(1-(oxetan-3-yl)-1H-pyrazol-4-yl)-1,6-dihydro-7H-pyrrolo[2,3-c]pyridin-7-one]			7.00 to 8.00	6.00 to 7.00
CCNC(=O)c1cc2c(C(c3ccccc3)c3ccccc3O)cn(C)c(=O)c2[nH]1 (stereo not shown) [Compound A28]			7.00 to 8.00	6.00 to 7.00
CC(c1cccc(F)c1F)c1cn(C)c(=O)c2[nH]c(-c3cnn(C4COC4)c3)cc12 (stereo not shown) [Compound A74, 4-(1-(2,3-difluorophenyl)ethyl)-6-methyl-2-(1-(oxetan-3-yl)-1H-pyrazol-4-yl)-1,6-dihydro-7H-pyrrolo[2,3-c]pyridin-7-one]			≥ 8.00	6.00 to 7.00
CC(c1ccccc1)c1cn(C)c(=O)c2[nH]c(-c3ccnc(C(F)(F)F)c3)cc12 (stereo not shown) [Compound A16, 6-methyl-4-(1-phenethyl)-2-(2-(trifluoromethyl)pyridin-4-yl)-1,6-dihydro-7H-pyrrolo[2,3-c]pyridin-7-one]			7.00 to 8.00	6.00 to 7.00
Cn1ccc(NC(=O)c2cc3c(-c4nc5ncccc5n4-c4ccccc4)cn(C)c(=O)c3[nH]2)n1 [Compound A53]			7.00 to 8.00	6.00 to 7.00
CC(c1ccccc1)c1cn(C)c(=O)c2[nH]c(C(=O)Nc3cnn(C)c3)cc12 (stereo not shown) [Compound A12, 6-methyl-N-(1-methyl-1H-pyrazol-4-yl)-7-oxo-4-(1-phenethyl)-6,7-dihydro-1H-pyrrolo[2,3-c]pyridin-2-carboxamide]			≥ 8.00	6.00 to 7.00
CCNC(=O)c1cc2c(C(C)c3cccnc3)cn(C)c(=O)c2[nH]1 (stereo not shown) [Compound A11, N-ethyl-6-methyl-7-oxo-4-(1-(pyridin-3-yl)ethyl)-6,7-dihydro-1H-pyrrolo[2,3-c]pyridin-2-carboxamide]			≥ 8.00	6.00 to 7.00

— US12649735B2 (HAIHE BIOPHARMA CO., LTD., priority 2019, dated 2026)
